Columns and labels:
eNOS = eNOS activity (L-arginine to L-citrulline) in human diabetic corpus cavernosum extracts; format: biochemical; conditions: 1 mM ABH added to diabetic penile extracts
Source text: In order to study the role of arginase in the development of these defects, corpus cavernosum tissue extracts were obtained from non-diabetic and diabetic men undergoing placement of a penile prosthesis for the management of their severe ED (Bivalacqua, et al., 2001 Biochem. Biophys. Res. Commun. 283: 923-927). […] Constitutive nitric oxide synthase activity (eNOS activity; calcium-dependent conversion of L-arginine to L-citrulline) is […] in human corporal tissue from diabetic patients vs. controls (See FIG. 7C), *P<0.05 when compare to controls; in the presence of the selective arginase inhibitor ABH, eNOS activity in human diabetic corpora caversosa is restored, **P<0.05 when compared to diabetic (Bivalacqua, et al., 2001 Biochem. Biophys. Res. Commun. 283: 923-927).
Diabetic corporal tissue extracts were prepared for the measurement of arginase activity by the production of urea in the presence of labeled arginine (FIG. 7B).

arginase II = target: T1, arginase II (Homo sapiens, UniProt P78540); conditions: cited from earlier work
T1 sequence (P78540 23-354): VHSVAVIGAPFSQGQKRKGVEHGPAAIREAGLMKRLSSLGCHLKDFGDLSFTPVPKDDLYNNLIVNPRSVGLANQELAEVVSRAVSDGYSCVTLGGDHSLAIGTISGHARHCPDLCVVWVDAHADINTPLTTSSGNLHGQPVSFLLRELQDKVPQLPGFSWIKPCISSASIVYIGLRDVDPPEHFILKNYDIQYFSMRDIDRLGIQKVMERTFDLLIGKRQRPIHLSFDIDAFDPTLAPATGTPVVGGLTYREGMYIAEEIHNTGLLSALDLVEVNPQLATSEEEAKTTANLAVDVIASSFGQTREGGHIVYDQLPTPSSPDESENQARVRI

[1] = test system: tissue explants from diabetic ZDF rats; assay: Ex vivo ABH treatment of tissue explants from type 2 diabetic ZDF rats (Example 6); format: cell-based, rat; conditions: vs ZLC rats
Source text: Biochemical and functional parameters of endothelial functions in a model of type 2 diabetes (Zucker Diabetic Fatty (ZDF) Rats) and in a control rat strain (Zucker Lean Control (ZLC) rat), are used to investigate the ex vivo effectiveness of ABH in improving these parameters. Vascular arginase activity and its role in the development of diabetic endothelial pathology have been previously characterized in models of Type 1 diabetes (Jelodar, et al., 2007 J. Reprod. Dev. 53: 317-321; Romero, et al., 2008 Circ. Res. 102: 95-102). […] Vascular endothelial function is measured using organ chambers in isolated rat arterial rings and in strips of erectile tissue collected from each rat strain.
ZDF rats have a mutation in the gene for the leptin receptor. […] Arginase I and II and eNOS mRNA and protein concentrations in these tissues are determined by RT-PCR and Western blot, respectively. Arginase activity is measured, as described in Example 4, by homogenizing the rat vessels in lysis buffer, removing cellular debris by centrifugation, and monitoring the hydrolysis of L-arginine using calorimetric determination of urea after the addition of isonitrosopropiophenone. […] The cellular location of arginase in this model of type 2 diabetes is determined by comparing the results of RT-PCR, Western blot, and arginase activity assays in endothelial-intact and endothelial-denuded aortic rings. […]

arginase I [2] = conditions: tissue extracts from diabetic corpus cavernosa; cited from earlier work
arginase I [3] = target: T2, arginase I (Homo sapiens, UniProt P05089); conditions: cited from earlier work
T2 sequence (P05089 1-322): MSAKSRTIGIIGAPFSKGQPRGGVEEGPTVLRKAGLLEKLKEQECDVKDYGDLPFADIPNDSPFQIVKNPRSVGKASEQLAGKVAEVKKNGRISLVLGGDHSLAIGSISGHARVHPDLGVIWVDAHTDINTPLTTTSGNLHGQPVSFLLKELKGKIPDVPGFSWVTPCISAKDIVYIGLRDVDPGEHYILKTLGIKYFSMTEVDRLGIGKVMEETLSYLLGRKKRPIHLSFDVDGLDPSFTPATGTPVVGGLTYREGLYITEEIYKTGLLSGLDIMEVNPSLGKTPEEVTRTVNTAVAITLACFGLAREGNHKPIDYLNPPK

N[C@@H](CCCCB(O)O)C(=O)O [ABH, 2(S)-Amino-6-boronohexanoic acid]
eNOS activity (eNOS): improved to levels that were comparable to those of control corpus cavernosum
potency as inhibitor of arginase II (arginase II): most potent inhibitor
biochemical (arginase activity, NO, ROS) and functional (vascular endothelial, erectile) parameters [1]: return these biochemical and functional parameters to values that are similar to those of ZLC rats
levels of cGMP (arginase I [2]): increase levels of cGMP
potency as inhibitor of arginase I (arginase I [3]): most potent inhibitor
